Patent publication US20070185116A1, “Bicyclic compounds” (TANABE SEIYAKU CO., LTD., priority 2004, published 2007)

Key:
[1] = tested on: isolated rabbit urinary bladder; experiment: Relaxation effect on potassium-induced contraction of isolated rabbit urinary bladder; type: cell-based; details: Oryctolagus cuniculus; strips pre-contracted with high-K+ (30 mM) Krebs solution; relaxation as percentage of maximum relaxation by 10^-4 M papaverine; read-out: IC50 value (50% relaxation concentration)
Description: [Relaxation Effect on Potassium-Induced Contraction of Isolated Rabbit Urinary Bladder]
Urinary bladder was isolated from Male NZW rabbits (body weight: 2.0-3.5 kg) and immersed in ice-cold Krebs-bicarbonate solution (in mM: 118 NaCl, 4.7 KCl, 2.55 CaCl2, 1.18 MgSO4, 1.18 KH2PO4, 24.88 NaHCO3 and 11.1 glucose). The urinary bladder was cut into longitudinal strips (5 mm length, 3-4 mm width) after mucosal layer was removed.
Preparations were mounted in organ baths containing 10 ml of Krebs solution maintained at 37° C. and gassed with 95% O2/5% CO2. Accordingly, preparations were stretched with an initial tension of 2.0±1.0 g, and changes in isometric tension were measured by force-displacement transducer. The preparations were pre-contracted by changing organ-bath solution into high-K^+ (30 mM) Krebs solution (in mM: 118 NaCl, […], 2.55 CaCl2, 1.18 MgSO4, 1.18 KH2PO4, 24.88 NaHCO3 and 11.1 glucose).
After stable tension was obtained, compounds were added into organ baths cumulatively (10^−8 M-10^−4 M). The effects of compounds were expressed as a percentage of the maximum relaxation produced by 10^−4 M papaverine as 100%. 50% relaxation concentration (IC50) was calculated and IC50 value range (μM) of compounds of the present invention was shown in the following Table 1 with a rank of A, B or C.
These ranges are as mentioned below.

[2] = tested on: rhythmic bladder contractions induced by substance P; experiment: Inhibitory effect on the rhythmic bladder contractions induced by substance P in anesthetized rats; type: in vivo, rat; details: 0.25 mg/kg, intravenous administration; urethane-anesthetized female Sprague-Dawley rats; observed for 35 minutes

Cc1ccc(-c2ncc(Cl)cc2-c2ccc(C(N)=O)cc2)cn1 [Example 1]
IC50 [1]: 500 to 1000 nM
100% inhibition time: Time (min) during which the frequency of the rhythmic contraction had been completely inhibited [2]: 20.5 min

Cc1ccccc1-c1ncc(Cl)cc1-c1ccc(C(N)=O)cc1 [Example 43]
IC50 [1]: 500 to 1000 nM
100% inhibition time: Time (min) during which the frequency of the rhythmic contraction had been completely inhibited [2]: >35 min
